Assay results as given in patent US6737383B1, “Herbicidal oxadiazolidines” (priority 1999, dated 2004).

Assays:
blackgrass = assay: Test E blackgrass; format: in vivo, Alopecurus myosuroides; conditions: Preemergence; for Blackgrass plant response rating (0 to 100 scale): Rate 250 g/ha
winter barley = assay: Test E winter barley; format: in vivo, Hordeum vulgare; conditions: Preemergence; for Barley (winter) plant response rating (0 to 100 scale): Rate 250 g/ha
wild oat = assay: Test E wild oat; format: in vivo, Avena fatua; conditions: Preemergence; for Wild oat plant response rating (0 to 100 scale): Rate 250 g/ha
Italian ryegrass = assay: Test E Italian ryegrass; format: in vivo, Lolium multiflorum; conditions: Preemergence; for I. Ryegrass plant response rating (0 to 100 scale): Rate 250 g/ha
bamyardgrass = assay: Test B flood test barnyardgrass; format: in vivo, Echinochloa crus-galli
Summary of the method: (§1)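 Read-out is a visual response score from 0 (no effect) to 10 (complete control), assigned by comparison with untreated controls. Treatment was applied at the 2-leaf stage, and plants stayed in the greenhouse for twelve to sixteen days before scoring.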

winter wheat [1] = assay: Test E winter wheat; format: in vivo, Triticum aestivum; conditions: Postemergence; for Wheat (winter) plant response rating: Rate 250 g/ha
Summary of the method: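 Greenhouse test: for postemergence, foliar application at 1- to 4-leaf stage; compound in non-phytotoxic solvent with surfactant. Rating is visual, relative to untreated controls, about 21 to 28 days after treatment.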

rice = assay: Test B flood test rice; format: in vivo, Oryza sativa
Summary of the method: as §1

soybean = assay: Test B pre/postemergence soybean; format: in vivo, Glycine max
Summary of the method: (§2)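 Response is a visual 0-to-10 score relative to untreated plants, where 0 means no effect and 10 means complete control, taken twelve to sixteen days after application. Treatments went onto soil at planting and onto foliage of 1- to 4-leaf plants, using a surfactant-containing non-phytotoxic solvent.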

green foxtail = assay: Test E green foxtail; format: in vivo, Setaria viridis; conditions: Preemergence; for Green foxtail plant response rating (0 to 100 scale): Rate 250 g/ha
giant foxtail = assay: Test B pre/postemergence giant foxtail; format: in vivo, Setaria faberii
Summary of the method: as §2

winter wheat [2] = assay: Test E winter wheat; format: in vivo, Triticum aestivum; conditions: Preemergence; for Wheat (winter) plant response rating (0 to 100 scale): Rate 250 g/ha
[3] = Rate 500 g/ha, 0 to 100 scale where 0 is no effect and 100 is complete control
[4] = Rate 1000 g/ha, 0 to 100 scale, 0 no effect, 100 complete control
[5] = Pre-emergence, Rate 1000 g/ha, scale 0 to 10 (0 no effect, 10 complete control)
[6] = Rate 62 g/ha, headed Pre-emergence (flood test species), scale 0 to 10 (0 no effect, 10 complete control)
[7] = Rate 125 g/ha, Pre-emergence, flood test species, scale 0 to 10 where 0 is no effect and 10 is complete control
[8] = Rate 250 g/ha, Pre-emergence, flood-test species, scale 0 to 10, 0 is no effect, 10 is complete control
[9] = Rate 500 g/ha, Pre-emergence, flood test species, scale 0 to 10 (0 no effect, 10 complete control)
[10] = 0 to 100 scale where 0 is no effect and 100 is complete control
[11] = Rate 500 g/ha, 0 to 100 scale, 0 is no effect, 100 is complete control
[12] = Preemergence, Rate 62 g/ha, scale of 0 to 10 where 0 is no effect and 10 is complete control
[13] = Preemergence, Rate 250 g/ha, scale of 0 to 10 where 0 is no effect and 10 is complete control
[14] = Preemergence, Rate 500 g/ha, scale of 0 to 10 where 0 is no effect and 10 is complete control
[15] = Rate 125 g/ha, Postemergence, scale of 0 to 10 where 0 is no effect and 10 is complete control
[16] = Rate 125 g/ha, Preemergence, scale of 0 to 10 where 0 is no effect and 10 is complete control
[17] = Rate 250 g/ha, Postemergence, scale of 0 to 10 where 0 is no effect and 10 is complete control
[18] = Rate 500 g/ha, Postemergence, scale 0 to 10, 0 no effect, 10 complete control
[19] = Rate 125 g/ha, 0 to 100 scale (0 no effect, 100 complete control)

SMILES: CCN(C(=O)n1oc(=O)n(N(C)C)c1=O)C1CCCCC1 [Compound 274]
- Blackgrass plant response rating (0 to 100 scale) (blackgrass): 0
- Plant response rating, Blackgrass (blackgrass; [3]): 30
- Plant response rating, Blackgrass (blackgrass; [4]): 65
- Barley (winter) plant response rating (0 to 100 scale) (winter barley): 50
- Plant response rating, Barley (winter) (winter barley; [3]): 60
- Plant response rating, Barley (winter) (winter barley; [4]): 55
- Wild oat plant response rating (0 to 100 scale) (wild oat): 40
- Plant response rating, Wild oat (wild oat; [3]): 50
- Plant response rating, Wild oat (wild oat; [4]): 60
- I. Ryegrass plant response rating (0 to 100 scale) (Italian ryegrass): 20
- Plant response rating, I. Ryegrass (Italian ryegrass; [3]): 30
- Plant response rating, I. Ryegrass (Italian ryegrass; [4]): 50
- Barnyardgrass plant response rating (bamyardgrass; [5]): 0
- Barnyardgrass plant response rating (bamyardgrass; [6]): 0
- Barnyardgrass plant response rating (bamyardgrass; [7]): 0
- Barnyardgrass plant response rating (bamyardgrass; [8]): 0
- Barnyardgrass plant response rating (bamyardgrass; [9]): 0
- Barnyardgrass plant response rating (bamyardgrass; Rate 2000 g/ha, Pre-emergence (as headed), scale 0 to 10, 0 no effect, 10 complete control): 0
- Plant response rating, Wheat (winter) (winter wheat [1]; Rate 1000 g/ha, 0 to 100 scale where 0 is no effect and 100 is complete control): 60
- Wheat (winter) plant response rating (winter wheat [1]; [10]): 30
- Plant response rating, Wheat (winter) (winter wheat [1]; [11]): 50
- Rice plant response rating (rice; [5]): 0
- Rice plant response rating (rice; [6]): 0
- Rice plant response rating (rice; [7]): 0
- Rice plant response rating (rice; [8]): 0
- Rice plant response rating (rice; [9]): 0
- Rice plant response rating (rice; Rate 2000 g/ha, Pre-emergence (as headed), scale 0 to 10): 0
- Soybean plant response rating (soybean; [12]): 0
- Soybean plant response rating (soybean; [13]): 0
- Plant response rating, Soybean (soybean; [14]): 0
- Soybean plant response rating (soybean; [15]): 3
- Soybean plant response rating (soybean; [16]): 0
- Plant response rating, Soybean (soybean; [17]): 5
- Soybean plant response rating (soybean; [18]): 5
- Green foxtail plant response rating (0 to 100 scale) (green foxtail): 20
- Plant response rating, Green foxtail (green foxtail; [3]): 30
- Plant response rating, Green foxtail (green foxtail; [4]): 40
- Giant foxtail plant response rating (giant foxtail; [12]): 0
- Giant foxtail plant response rating (giant foxtail; [13]): 6
- Plant response rating, Giant foxtail (giant foxtail; [14]): 9
- Giant foxtail plant response rating (giant foxtail; [15]): 0
- Giant foxtail plant response rating (giant foxtail; [16]): 3
- Plant response rating, Giant foxtail (giant foxtail; [17]): 0
- Giant foxtail plant response rating (giant foxtail; [18]): 0
- Wheat (winter) plant response rating (0 to 100 scale) (winter wheat [2]): 30
- Plant response rating, Wheat (winter) (winter wheat [2]; [3]): 50
- Plant response rating, Wheat (winter) (winter wheat [2]; [4]): 50

SMILES: CC(C)N(C(=O)n1oc(=O)n(CC(C)(C)C)c1=O)c1ccccc1 [Compound 276]
- Plant response rating, Blackgrass (blackgrass; [19]): 30
- Blackgrass plant response rating (0 to 100 scale) (blackgrass): 50
- Plant response rating, Blackgrass (blackgrass; [3]): 50
- Plant response rating, Barley (winter) (winter barley; [19]): 50
- Barley (winter) plant response rating (0 to 100 scale) (winter barley): 30
- Plant response rating, Barley (winter) (winter barley; [3]): 50
- Plant response rating, Wild oat (wild oat; [19]): 50
- Wild oat plant response rating (0 to 100 scale) (wild oat): 60
- Plant response rating, Wild oat (wild oat; [3]): 60
- Plant response rating, I. Ryegrass (Italian ryegrass; [19]): 30
- I. Ryegrass plant response rating (0 to 100 scale) (Italian ryegrass): 60
- Plant response rating, I. Ryegrass (Italian ryegrass; [3]): 50
- Barnyardgrass plant response rating (bamyardgrass; [6]): 1
- Barnyardgrass plant response rating (bamyardgrass; [7]): 6
- Barnyardgrass plant response rating (bamyardgrass; [8]): 8
- Barnyardgrass plant response rating (bamyardgrass; [9]): 8
- Plant response rating, Wheat (winter) (winter wheat [1]; Rate 125 g/ha, 0 to 100 scale, 0 is no effect, 100 is complete control): 10
- Wheat (winter) plant response rating (winter wheat [1]; [10]): 10
- Plant response rating, Wheat (winter) (winter wheat [1]; [11]): 20
- Rice plant response rating (rice; [6]): 0
- Rice plant response rating (rice; [7]): 0
- Rice plant response rating (rice; [8]): 0
- Rice plant response rating (rice; [9]): 0
- Soybean plant response rating (soybean; [12]): 0
- Soybean plant response rating (soybean; [13]): 0
- Plant response rating, Soybean (soybean; [14]): 0
- Soybean plant response rating (soybean; [15]): 5
- Soybean plant response rating (soybean; [16]): 0
- Plant response rating, Soybean (soybean; [17]): 6
- Soybean plant response rating (soybean; [18]): 7
- Plant response rating, Green foxtail (green foxtail; [19]): 60
- Green foxtail plant response rating (0 to 100 scale) (green foxtail): 100
- Plant response rating, Green foxtail (green foxtail; [3]): 98
- Giant foxtail plant response rating (giant foxtail; [12]): 9
- Giant foxtail plant response rating (giant foxtail; [13]): 10
- Plant response rating, Giant foxtail (giant foxtail; [14]): 10
- Giant foxtail plant response rating (giant foxtail; [15]): 1
- Giant foxtail plant response rating (giant foxtail; [16]): 10
- Plant response rating, Giant foxtail (giant foxtail; [17]): 4
- Giant foxtail plant response rating (giant foxtail; [18]): 6
- Plant response rating, Wheat (winter) (winter wheat [2]; [19]): 20
- Wheat (winter) plant response rating (0 to 100 scale) (winter wheat [2]): 30
- Plant response rating, Wheat (winter) (winter wheat [2]; [3]): 50
